Results reported in US5563163A, “2-saccharinylmethyl heterocyclic carboxylates useful as proteolytic enzyme inhibitors and compositions and method of use thereof” (Sterling Winthrop, Inc., priority 1995, dated 1996).
Counter-ions that a name gives are not always drawn.

Biological target: T1, human leukocyte elastase (HLE) (Homo sapiens, UniProt P08246)
T1 sequence (P08246 30-267): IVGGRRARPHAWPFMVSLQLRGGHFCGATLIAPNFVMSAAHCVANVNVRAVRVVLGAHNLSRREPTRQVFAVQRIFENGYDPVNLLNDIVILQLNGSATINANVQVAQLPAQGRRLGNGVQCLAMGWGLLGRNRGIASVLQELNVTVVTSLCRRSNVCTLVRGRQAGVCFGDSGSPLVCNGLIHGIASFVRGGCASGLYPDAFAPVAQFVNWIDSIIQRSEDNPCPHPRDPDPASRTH
Assay: Inhibition of human leukocyte elastase (HLE): rate of inactivation kon and inhibition constant Ki* (= koff/kon)
Assay type: biochemical
Details: for kinact/KI: "Kon × 10^-3": value is Kon multiplied by 10^-3; for Ki: Ki* calculated as koff/kon, not a truly reversible Ki
Protocol: Measurement of the inhibition constant, Ki, of a HLE-inhibitor complex has been described for "truly reversible inhibition constants" usually concerning competitive inhibitors. [Cha, Biochem. Pharmacol., 24, 2177-2185 (1975)]. […] Thus, instead of measuring a Ki, a Ki * is calculated which is defined as the ratio of the koff /kon, the rate of reactivation of the enzyme to the rate of inactivation of the enzyme. The values of koff and kon are measured and Ki * is then calculated. The rate of inactivation, kon, of enzymatic activity was determined for the compounds tested by measuring the enzyme activity of an aliquot of the respective enzyme as a function of time after addition of the test compound. […] The rate of inactivation is then equal to [formula] where [I] is the concentration of the inhibiting compound. The reactivation constant, koff, is similarly determined, and the inhibition constant, Ki *, is then calculated as Ki *=koff /kon The values obtained for kon and Ki * for specific substituted saccharin derivatives are shown in TABLE 3, the compounds being identified by the Example numbers above where their preparations are described.

kinact/KI [M⁻¹ s⁻¹]	Ki [nM]	SMILES
1200	40	O=C(OCN1C(=O)c2ccccc2S1(=O)=O)c1ccncc1 [Example 1, 2-saccharinylmethyl pyridine-4-carboxylate]
11000	10	O=C(OCN1C(=O)c2ccccc2S1(=O)=O)c1c(Cl)cncc1Cl [Example 2, 2-saccharinylmethyl 3,5-dichloropyridine-4-carboxylate]
1.5e+06	0.015	CC(C)c1cccc2c1C(=O)N(COC(=O)c1c(Cl)cnc(OCCN3CCOCC3)c1Cl)S2(=O)=O [Example 3, 4-(isopropyl]-2-saccharinylmethyl 3.5-dichloro-2-[2-(4-morpholinyl)ethoxy]pyridine-4-carboxylate hydrochloride]
2.3e+06		CC(C)c1cccc2c1C(=O)N(COC(=O)c1c(Cl)cncc1Cl)S2(=O)=O [Example 4, 4-isopropyl-2-saccharinylmethyl 3,5-dichloro-pyridine-4-carboxylate hydrochloride]
455000	0.022	COc1cc(C(C)C)c2c(c1)S(=O)(=O)N(COC(=O)c1c(Cl)cnc(OCCN(C)C)c1Cl)C2=O [Example 5, 4-isopropyl-6-methoxy-2-saccharinylmethyl 3,5-dichloro-2-[2-(dimethylamino)ethoxy]pyridine-4-carboxylate]
47600	0.21	COc1cc(C(C)C)c2c(c1)S(=O)(=O)N(COC(=O)c1ccsc1)C2=O [Example 6, 4-isopropyl-6-methoxy-2-saccharinylmethyl thiophene-3-carboxylate]
625000	0.016	COc1cc(C(C)C)c2c(c1)S(=O)(=O)N(COC(=O)c1sccc1C)C2=O [Example 7, 4-isopropyl-6-methoxy-2-saccharinylmethyl 3-methylthiophene-2-carboxylate]
100000	0.1	COc1cc(C(C)C)c2c(c1)S(=O)(=O)N(COC(=O)c1cccs1)C2=O [Example 8, 4-isopropyl-6-methoxy-2-saccharinylmethyl thiophene-2-carboxylate]
131000	0.076	COc1cc(C(C)C)c2c(c1)S(=O)(=O)N(COC(=O)c1sccc1Cl)C2=O [Example 9, 4-isopropyl-6-methoxy-2-saccharinylmethyl 3-chlorothiophene-2-carboxylate]
63000	0.16	COc1cc(C(C)C)c2c(c1)S(=O)(=O)N(COC(=O)c1cc(C)no1)C2=O [Example 10, 4-isopropyl-6-methoxy-2-saccharinylmethyl 3-methylisoxazole-5-carboxylate]
50000	0.2	COc1cc(C(C)C)c2c(c1)S(=O)(=O)N(COC(=O)C1CCC(=O)N1)C2=O (centres unmarked) [Example 11, 4-isopropyl-6-methoxy-2-saccharinylmethyl-2-pyrrolidine-5-carboxylate]
28000	0.36	COc1cc(C(C)C)c2c(c1)S(=O)(=O)N(COC(=O)c1c(C)noc1C)C2=O [Example 12, 4-isopropyl-6-methoxy-2-saccharinylmethyl 3,5-dimethylisoxazole-4-carboxylate]
9000	1.1	COc1cc(C(C)C)c2c(c1)S(=O)(=O)N(COC(=O)c1c(C)nn(-c3ccccc3)c1C)C2=O [Example 13, 4-isopropyl.-6-methoxy-2-saccharinylmethyl 3,5-dimethyl-1-phenylpyrazole-4-carboxylate]
500000	0.02	COc1cc(C(C)C)c2c(c1)S(=O)(=O)N(COC(=O)c1c(C)ccnc1C)C2=O [Example 14, 4-isopropyl-6-methoxy-2-saccharinylmethyl 2,4-dimethylpyridine-3 carboxylate]
6000	1.5	COc1cc(C(C)C)c2c(c1)S(=O)(=O)N(COC(=O)c1c(C)c3cc(Cl)ccc3n1C)C2=O [Example 15, 4-isopropyl-6-methoxy-2-saccharinylmethyl 1,3-dimethyl-5-chloro-indole-2-carboxylate]
